Assay results reported in patent US12622956B2, “Methods and vaccines for inducing immune responses to multiple different MHC molecules” (Mayo Foundation for Medical Education and Research, priority 2015, dated 2026).
Ends that are not written are not given here.

Columns and labels:
Type in all cases: cell-based, human
[1] = system: T-cells; assay: PBMC culture pulsed with long polypeptide, restimulation, intracellular cytokine (IFNγ) assay, healthy donors; design: key to Testing (confirmed immunogenicity in healthy donors): *: Represents polypeptides confirmed to be immunogenic in 4/4 healthy donors.; ¶: Represents polypeptides confirmed to be immunogenic in one healthy donor; details: for immunogenicity (frequency of antigen-specific T-cells): FIGS. 4C and 4D, unvaccinated HLA-A2.1+ healthy volunteers; for immune response by antigen specific IFNγ production: FIGS. 4C and D, CD4+ and CD8+ T cells, four healthy donors, background subtracted
Method: The SEA polypeptides, CMV long polypeptide, and VNTR polypeptide were tested in a culture system. Briefly, bulk peripheral blood mononuclear cells (PBMC) were thawed and exposed to GM-CSF on day 0 in culture. […] On day 2, media was washed out, and the cells were split 1:6 in fresh media containing IL-7 for T-cell expansion. Further splits occurred with simple addition of more media containing IL-7 depending upon acidity of the media between days 7-15. On day 16, an antigen specific restimulation of T-cell cultures was performed utilizing fresh PBMC as the antigen presenting cells. These fresh PBMC were thawed on day 14 and treated the same way as the initial culture on days 0-1, before being used on day 16. At the time of restimulation, an intracellular cytokine assay was performed. The T-cell cultures also were allowed to proliferate for an additional […] in media containing IL-7. At the end of culture, day 28, T-cells were further tested with a new intracellular cytokine assay utilizing fresh PBMC, prepared the same way as the PBMC used on day 16 for the first intracellular cytokine assay. Representative dot-plots for IFNγ levels are shown for the CMV pp65 polypeptide and the SEA2 polypeptide, with levels being much lower when T-cells were not restimulated with the same polypeptide they saw at the initiation of culture. […] Each data point represents the level of IFNγ after subtracting the levels of IFNγ from restimulation with irrelevant polypeptides or no polypeptide from levels when T-cells were restimulated with the original polypeptide.
The synthesized long peptides were individually pulsed onto GM+R848+LPS conditioned PBMC cultures established from unvaccinated HLA-A2.1+ healthy volunteers, then expanded in rhIL-7 or rhIL-7+rhIL-2. […] Proliferation of CD4+ and CD8^+ T-cells was indistinguishable, with both subsets retaining their initial proportionality during expansion.

[2] = system: MDA-MB-231.MUC1; assay: Cr51 release lysis by peptide-driven T-cells; details: T-cells from 3 donors; FIG. 6
Source text: T-cells from GM+R848+LPS conditioned PBMC driven by either SEA2 or SEA1 long peptides not only specifically recognized one or both of these sensitizing peptides at restimulation, but also preferentially lysed the HLA-A2.1+ human breast cancer line MDA-MB-231 transduced to express MUC1 (MDA-MB-231.MUC1) compared to MDA-MB-231.Neo control targets. […] Polyclonally driven T-cells from all 3 donors lysed MDA-MB-231.MUC1 indistinguishably from MDA-MB-231.Neo.

[3] = system: SEA1-specific T-cells; assay: Effect of C-terminal amidation on sensitizing Ag-specific IFNγ T cells; details: FIG. 9; one healthy donor; versus SEA1 without C-terminal amidation
Source text: Amidated polypeptides were amidated at the C-terminus as described elsewhere (see, e.g., Brinckerhoff et al., Int. J. Cancer 83 (3): 326-34 (1999)).
A cocktail of peptides such as SEA1, SEA1-amide, acetyl-SEA1 and acetyl-SEA1-amide can be used to capture a broadened SEA1 response (or similarly for any other peptide).

Substance | Testing (confirmed immunogenicity in healthy donors) [1] | further results
57 (GVGSPYVSRLLGICLTSTVQLV; immunogenic polypeptide) [compound 57] | ¶/HER2 | –
26 (GVGSPYVSRLLGICLTSTVQLVTQLM; immunogenic polypeptide) [compound 26] | ¶/HER2 | –
6 (STDYYQELQRDISEMFLQIYKQGGFLGLSNIKFRPGSVV; immunogenic polypeptide) [compound 6] | */MUC1 | –
AHGVTSAPDTRPAPGSTAPPAHGV [VNTR, reference compound] | – | immunogenicity (frequency of antigen-specific T-cells) [1]: reproducibly less effective
SPQLSTGVSFFFLSFHISNLQFNSSLEDPSTD [SEA1] | – | lysis of MDA-MB-231.MUC1 compared to MDA-MB-231.Neo control targets [2]: significantly more; immunogenicity (frequency of antigen-specific T-cells) [1]: highly immunogenic; immune response by antigen specific IFNγ production [1]: consistently exhibited an immune response
16 (NIQEFAGCKKIFGSLAFLPESFDGDP; immunogenic polypeptide) [compound 16] | ¶/HER2 | –
11 (LSFLQDIQEVQGYVLIAHNQVRQVPLQRL; immunogenic polypeptide) [compound 11] | ¶/HER2 | –
14 (YQDTILWKDIFHKNNQLALTLIDTNRSRACHPC; immunogenic polypeptide) [compound 14] | ¶/HER2 | –
33 (SECRPRFRELVSEFSRMARDPQRFVVIQ; immunogenic polypeptide) [compound 33] | ¶/HER2 | –
24 (IKRRQQKIRKYTMRRLLQETELVEPLTPS; immunogenic polypeptide) [compound 24] | ¶/HER2 | –
7 (VHDVETQFNQYKTEAASRYNLTISDVSVSDVPFP; immunogenic polypeptide) [compound 7] | */MUC1 | –
20 (ELGSGLALIHHNTHLCFVHTVPW; immunogenic polypeptide) [compound 20] | ¶/HER2 | –
STDYYQELQRDISEMFLQIYKQGGFLGLSNIKFRPGSVV [SEA2] | – | lysis of MDA-MB-231.MUC1 compared to MDA-MB-231.Neo control targets [2]: significantly more; immunogenicity (frequency of antigen-specific T-cells) [1]: highly immunogenic; immune response by antigen specific IFNγ production [1]: consistently exhibited an immune response
SPQLSTGVSFFFLSFHISNLQFNSSLEDPSTD-amide (SPQLSTGVSFFFLSFHISNLQFNSSLEDPSTD-NH2) [SEA1-amide, SEA1 amidated at the C-terminus] | – | SEA1-specific CD8+ T-cell response [3]: less affected by amidation; sensitizing SEA1-specific CD4+ IFNγ-producing T-cells [3]: far superior
SQEPMSIYVYALPLKMLNIPSINVHHYP [SEQ ID NO: 1] | – | immunogenicity (frequency of antigen-specific T-cells) [1]: highly immunogenic; immune response by antigen specific IFNγ production [1]: consistently exhibited an immune response
29 (DLAARNVLVKSPNHVKITDFG; immunogenic polypeptide) [compound 29] | ¶/HER2 | –
18 (DLSVFQNLQVIRGRILHNGAYSLTLQGLG; immunogenic polypeptide) [compound 18] | ¶/HER2 | –
3 (NRPALGSTAPPVHNVTSASGSASGSASTLV; immunogenic polypeptide) [compound 3] | */MUC1 | –
17 (VFETLEEITGYLYISAWPDSLPDLSV; immunogenic polypeptide) [compound 17] | ¶/HER2 | –
30 (DGGKVPIKWMALESILRRRFTHQS; immunogenic polypeptide) [compound 30] | ¶/HER2 | –
12 (AHNQVRQVPLQRLRIVRGTQLFEDNYALA; immunogenic polypeptide) [compound 12] | ¶/HER2 | –
5 (STSPQLSTGVSFFFLSFHISNLQFNSSLEDPSTD; immunogenic polypeptide) [compound 5] | */MUC1 | –
13 (TEILKGGVLIQRNPQLCYQDTILWKDIFH; immunogenic polypeptide) [compound 13] | ¶/HER2 | –
